pIC50, pKd: −log10 of the molar value. In brackets after ≈: the same amount, converted by molar mass.
How the values were obtained:
[1] = molecular target: T1, Serine/threonine-protein kinase 17B (Homo sapiens, UniProt O94768); experiment: Binding affinity to N-terminal His-tagged STK17B kinase domain (25 to 329 residues) (unknown origin) expressed in Escherichia coli by KINOMEscan scanMAX assay
T1 sequence (O94768 whole entry): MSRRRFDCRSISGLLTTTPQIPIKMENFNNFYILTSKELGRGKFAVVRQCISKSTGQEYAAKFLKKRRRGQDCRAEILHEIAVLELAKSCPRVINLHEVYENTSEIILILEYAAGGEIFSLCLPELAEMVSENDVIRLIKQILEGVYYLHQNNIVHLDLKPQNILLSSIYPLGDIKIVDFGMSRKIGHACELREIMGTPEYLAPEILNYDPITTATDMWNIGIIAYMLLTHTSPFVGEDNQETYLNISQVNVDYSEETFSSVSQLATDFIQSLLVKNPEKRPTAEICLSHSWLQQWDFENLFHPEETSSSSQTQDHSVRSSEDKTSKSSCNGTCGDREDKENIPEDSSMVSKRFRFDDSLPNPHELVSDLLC

[2] = molecular target: T1, Serine/threonine-protein kinase 17B; experiment: Inhibition of N-terminal His-tagged STK17B kinase domain (25 to 329 residues) (unknown origin) expressed in Escherichia coli incubated for 90 mins by Kinase seeker split luciferase assay
[3] = Stability in mouse liver microsomes assessed as compound remaining at 0.1 mM in presence of NADPH regeneration system after 30 mins by LC-MS/MS analysis; type: ADME, Microsome; conditions: read-out: Stabilty
[4] = Kinetic solubility in pH 7.4 PBS; type: physicochemical; conditions: read-out: Kinetic_solubility
[5] = molecular target: T2, Hepatocyte growth factor receptor (Homo sapiens, UniProt P08581); experiment: Binding affinity to human MET assessed as displacement of immobilized ligand by KINOMEscan scanMAX assay relative to control
T2 sequence (P08581 whole entry): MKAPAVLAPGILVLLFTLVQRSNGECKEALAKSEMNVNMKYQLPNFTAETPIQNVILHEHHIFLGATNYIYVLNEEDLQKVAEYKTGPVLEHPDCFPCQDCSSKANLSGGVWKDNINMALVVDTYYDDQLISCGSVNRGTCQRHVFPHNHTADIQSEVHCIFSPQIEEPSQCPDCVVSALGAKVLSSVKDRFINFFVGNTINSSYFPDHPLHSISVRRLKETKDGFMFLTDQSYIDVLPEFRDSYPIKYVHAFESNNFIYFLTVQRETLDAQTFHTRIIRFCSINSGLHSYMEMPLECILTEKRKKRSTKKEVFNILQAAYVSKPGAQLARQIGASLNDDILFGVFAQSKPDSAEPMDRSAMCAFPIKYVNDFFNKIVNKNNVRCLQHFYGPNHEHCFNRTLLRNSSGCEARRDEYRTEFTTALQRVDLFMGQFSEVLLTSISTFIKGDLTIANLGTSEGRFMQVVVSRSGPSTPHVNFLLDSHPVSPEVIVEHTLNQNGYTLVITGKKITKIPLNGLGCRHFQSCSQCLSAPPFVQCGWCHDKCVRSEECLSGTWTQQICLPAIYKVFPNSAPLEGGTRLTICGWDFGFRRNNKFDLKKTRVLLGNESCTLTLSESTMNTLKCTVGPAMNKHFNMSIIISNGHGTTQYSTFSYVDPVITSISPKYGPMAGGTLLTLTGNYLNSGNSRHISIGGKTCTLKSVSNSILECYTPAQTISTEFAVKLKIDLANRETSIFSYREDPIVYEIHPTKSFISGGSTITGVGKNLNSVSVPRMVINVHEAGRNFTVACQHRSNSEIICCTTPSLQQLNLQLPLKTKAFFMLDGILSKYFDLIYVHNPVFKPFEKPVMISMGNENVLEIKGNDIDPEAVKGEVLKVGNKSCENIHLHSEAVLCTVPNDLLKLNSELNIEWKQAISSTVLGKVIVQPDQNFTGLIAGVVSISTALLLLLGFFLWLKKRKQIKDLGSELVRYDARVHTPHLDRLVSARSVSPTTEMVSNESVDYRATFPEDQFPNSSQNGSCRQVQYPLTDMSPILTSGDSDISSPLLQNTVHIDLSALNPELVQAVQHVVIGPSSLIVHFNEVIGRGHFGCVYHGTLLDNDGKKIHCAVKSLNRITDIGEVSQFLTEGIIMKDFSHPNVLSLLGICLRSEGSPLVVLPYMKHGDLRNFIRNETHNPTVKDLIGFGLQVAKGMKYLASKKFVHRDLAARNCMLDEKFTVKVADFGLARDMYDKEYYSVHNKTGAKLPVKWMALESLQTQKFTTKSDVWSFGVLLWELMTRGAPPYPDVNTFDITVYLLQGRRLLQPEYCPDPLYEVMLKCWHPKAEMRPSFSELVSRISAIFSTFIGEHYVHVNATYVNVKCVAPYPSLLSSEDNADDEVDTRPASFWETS

[6] = molecular target: T3, Serine/threonine-protein kinase Nek6 (Homo sapiens, UniProt Q9HC98); experiment: Binding affinity to human NEK6 assessed as displacement of immobilized ligand by KINOMEscan scanMAX assay relative to control
T3 sequence (Q9HC98 whole entry): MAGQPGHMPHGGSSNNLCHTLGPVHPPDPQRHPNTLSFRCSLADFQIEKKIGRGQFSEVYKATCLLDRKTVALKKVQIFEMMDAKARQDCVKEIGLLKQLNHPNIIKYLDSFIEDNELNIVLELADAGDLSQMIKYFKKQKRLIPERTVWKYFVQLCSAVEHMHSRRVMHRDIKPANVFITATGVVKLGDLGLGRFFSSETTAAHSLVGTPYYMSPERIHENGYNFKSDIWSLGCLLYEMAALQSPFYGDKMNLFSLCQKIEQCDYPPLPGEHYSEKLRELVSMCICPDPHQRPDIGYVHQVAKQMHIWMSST

[7] = molecular target: T4, Serine/threonine-protein kinase pim-2 (Homo sapiens, UniProt Q9P1W9); experiment: Binding affinity to human PIM2 assessed as displacement of immobilized ligand by KINOMEscan scanMAX assay relative to control
T4 sequence (Q9P1W9 whole entry): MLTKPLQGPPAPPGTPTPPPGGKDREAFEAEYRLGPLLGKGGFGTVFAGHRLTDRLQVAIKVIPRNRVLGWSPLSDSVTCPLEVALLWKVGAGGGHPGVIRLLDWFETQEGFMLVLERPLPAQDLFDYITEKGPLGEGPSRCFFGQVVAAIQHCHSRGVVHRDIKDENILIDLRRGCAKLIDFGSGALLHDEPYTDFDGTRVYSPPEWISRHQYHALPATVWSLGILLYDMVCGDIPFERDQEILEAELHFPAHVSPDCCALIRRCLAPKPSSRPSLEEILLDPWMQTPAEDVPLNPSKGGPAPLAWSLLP

Wee1-like protein kinase [8] = molecular target: T5, Wee1-like protein kinase (Homo sapiens, UniProt P30291); experiment: Binding affinity to human WEE1 assessed as displacement of immobilized ligand by KINOMEscan scanMAX assay relative to control
T5 sequence (P30291 whole entry): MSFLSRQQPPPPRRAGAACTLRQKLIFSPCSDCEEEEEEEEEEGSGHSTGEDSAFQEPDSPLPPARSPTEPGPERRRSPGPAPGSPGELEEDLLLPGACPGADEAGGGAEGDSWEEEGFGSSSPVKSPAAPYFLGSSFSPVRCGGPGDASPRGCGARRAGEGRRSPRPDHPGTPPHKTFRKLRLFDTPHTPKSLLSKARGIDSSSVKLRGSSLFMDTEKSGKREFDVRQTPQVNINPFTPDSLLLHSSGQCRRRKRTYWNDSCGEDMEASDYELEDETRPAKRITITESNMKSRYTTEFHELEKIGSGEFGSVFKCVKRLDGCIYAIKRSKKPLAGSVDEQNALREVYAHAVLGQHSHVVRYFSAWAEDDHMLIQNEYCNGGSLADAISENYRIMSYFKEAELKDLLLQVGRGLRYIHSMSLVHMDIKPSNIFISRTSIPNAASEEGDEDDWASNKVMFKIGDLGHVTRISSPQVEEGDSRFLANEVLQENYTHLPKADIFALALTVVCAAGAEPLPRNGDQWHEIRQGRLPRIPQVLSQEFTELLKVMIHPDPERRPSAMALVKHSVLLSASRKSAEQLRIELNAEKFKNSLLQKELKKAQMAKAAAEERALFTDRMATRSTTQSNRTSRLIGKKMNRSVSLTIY

[9] = molecular target: T1, Serine/threonine-protein kinase 17B; experiment: Binding affinity to human STK17B assessed as displacement of immobilized ligand by KINOMEscan scanMAX assay relative to control
[10] = molecular target: T6, Calcium/calmodulin-dependent protein kinase kinase 2 (Homo sapiens, UniProt Q96RR4); experiment: Binding affinity to human CAMKK2 assessed as displacement of immobilized ligand by KINOMEscan scanMAX assay relative to control
T6 sequence (Q96RR4 whole entry): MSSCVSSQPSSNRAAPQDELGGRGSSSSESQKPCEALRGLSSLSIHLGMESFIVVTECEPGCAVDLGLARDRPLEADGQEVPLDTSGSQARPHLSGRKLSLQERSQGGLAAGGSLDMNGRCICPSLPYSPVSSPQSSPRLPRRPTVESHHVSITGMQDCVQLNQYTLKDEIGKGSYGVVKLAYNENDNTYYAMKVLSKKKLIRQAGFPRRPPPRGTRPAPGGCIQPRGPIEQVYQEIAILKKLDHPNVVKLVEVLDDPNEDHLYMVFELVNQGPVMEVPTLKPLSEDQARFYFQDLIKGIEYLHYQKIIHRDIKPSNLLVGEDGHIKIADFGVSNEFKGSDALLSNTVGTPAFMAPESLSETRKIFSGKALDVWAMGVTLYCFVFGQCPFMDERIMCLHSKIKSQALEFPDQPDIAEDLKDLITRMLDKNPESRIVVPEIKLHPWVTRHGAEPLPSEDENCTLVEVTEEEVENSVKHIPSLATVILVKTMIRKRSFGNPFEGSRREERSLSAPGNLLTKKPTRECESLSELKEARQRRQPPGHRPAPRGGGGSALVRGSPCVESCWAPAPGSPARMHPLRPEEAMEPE

Aurora kinase B [11] = molecular target: T7, Aurora kinase B (Homo sapiens, UniProt Q96GD4); experiment: Binding affinity to human AURKB assessed as displacement of immobilized ligand by KINOMEscan scanMAX assay relative to control
T7 sequence (Q96GD4 whole entry): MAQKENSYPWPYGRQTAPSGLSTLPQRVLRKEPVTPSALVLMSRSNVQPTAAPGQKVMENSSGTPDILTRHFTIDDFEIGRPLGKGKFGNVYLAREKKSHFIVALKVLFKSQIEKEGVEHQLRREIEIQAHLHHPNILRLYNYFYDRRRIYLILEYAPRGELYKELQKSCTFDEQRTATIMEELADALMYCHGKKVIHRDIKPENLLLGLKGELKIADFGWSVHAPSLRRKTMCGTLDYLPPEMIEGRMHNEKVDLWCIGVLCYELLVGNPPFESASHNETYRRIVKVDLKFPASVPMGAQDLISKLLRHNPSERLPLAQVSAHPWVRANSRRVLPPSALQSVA

[12] = molecular target: T8, Calcium/calmodulin-dependent protein kinase kinase 1 (Homo sapiens, UniProt Q8N5S9); experiment: Binding affinity to human CAMKK1 assessed as displacement of immobilized ligand by KINOMEscan scanMAX assay relative to control
T8 sequence (Q8N5S9 whole entry): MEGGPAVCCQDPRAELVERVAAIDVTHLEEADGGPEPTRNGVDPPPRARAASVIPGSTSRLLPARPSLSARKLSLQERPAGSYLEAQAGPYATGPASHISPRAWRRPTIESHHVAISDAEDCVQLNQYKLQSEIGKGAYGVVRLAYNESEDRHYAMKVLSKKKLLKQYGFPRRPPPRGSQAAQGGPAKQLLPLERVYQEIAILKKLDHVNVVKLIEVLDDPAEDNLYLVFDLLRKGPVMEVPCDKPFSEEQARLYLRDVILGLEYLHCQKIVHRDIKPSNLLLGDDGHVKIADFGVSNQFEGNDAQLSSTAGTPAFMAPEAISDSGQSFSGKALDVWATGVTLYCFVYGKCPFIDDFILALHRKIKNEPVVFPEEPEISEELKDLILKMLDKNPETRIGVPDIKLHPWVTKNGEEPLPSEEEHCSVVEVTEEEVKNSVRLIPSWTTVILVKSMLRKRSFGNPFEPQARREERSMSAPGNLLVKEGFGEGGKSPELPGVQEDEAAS

[13] = molecular target: T9, Serine/threonine-protein kinase 38-like (Homo sapiens, UniProt Q9Y2H1); experiment: Binding affinity to human STK38L assessed as displacement of immobilized ligand by KINOMEscan scanMAX assay relative to control
T9 sequence (Q9Y2H1 whole entry): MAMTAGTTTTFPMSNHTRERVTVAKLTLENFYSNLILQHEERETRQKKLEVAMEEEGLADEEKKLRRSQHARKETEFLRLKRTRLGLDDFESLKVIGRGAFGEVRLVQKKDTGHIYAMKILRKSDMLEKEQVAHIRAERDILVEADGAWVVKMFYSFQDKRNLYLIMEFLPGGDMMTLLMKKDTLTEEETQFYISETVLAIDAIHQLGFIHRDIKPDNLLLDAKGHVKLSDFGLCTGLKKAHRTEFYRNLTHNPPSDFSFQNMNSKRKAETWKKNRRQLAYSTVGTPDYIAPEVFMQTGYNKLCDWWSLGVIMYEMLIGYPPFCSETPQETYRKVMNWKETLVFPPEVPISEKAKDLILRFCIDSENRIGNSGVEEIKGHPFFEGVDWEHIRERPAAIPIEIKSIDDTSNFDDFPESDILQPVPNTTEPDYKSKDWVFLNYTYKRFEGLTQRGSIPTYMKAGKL

[14] = molecular target: T10, Serine/threonine-protein kinase 17A (Homo sapiens, UniProt Q9UEE5); experiment: Binding affinity to human STK17A assessed as displacement of immobilized ligand by KINOMEscan scanMAX assay relative to control
T10 sequence (Q9UEE5 whole entry): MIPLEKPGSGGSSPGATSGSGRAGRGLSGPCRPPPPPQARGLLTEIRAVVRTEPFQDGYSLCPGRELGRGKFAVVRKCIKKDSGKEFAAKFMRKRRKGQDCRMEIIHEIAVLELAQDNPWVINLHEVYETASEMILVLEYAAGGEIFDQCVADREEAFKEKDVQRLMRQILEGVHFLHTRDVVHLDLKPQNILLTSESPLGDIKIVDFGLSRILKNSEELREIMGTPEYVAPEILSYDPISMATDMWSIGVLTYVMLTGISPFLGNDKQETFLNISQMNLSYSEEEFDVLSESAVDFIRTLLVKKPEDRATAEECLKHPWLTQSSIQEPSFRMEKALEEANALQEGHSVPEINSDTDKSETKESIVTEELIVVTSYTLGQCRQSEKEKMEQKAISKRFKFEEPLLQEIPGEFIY

[15] = molecular target: T2, Hepatocyte growth factor receptor; experiment: Inhibition of human MET in presence of ATP at Km level
[16] = molecular target: T3, Serine/threonine-protein kinase Nek6; experiment: Inhibition of human NEK6 in presence of ATP at Km level
[17] = molecular target: T4, Serine/threonine-protein kinase pim-2; experiment: Inhibition of human PIM2 in presence of ATP at Km level
Wee1-like protein kinase [18] = molecular target: T5, Wee1-like protein kinase; experiment: Inhibition of human WEE1 in presence of ATP at Km level
[19] = molecular target: T1, Serine/threonine-protein kinase 17B; experiment: Inhibition of human STK17B in presence of ATP at Km level
[20] = molecular target: T6, Calcium/calmodulin-dependent protein kinase kinase 2; experiment: Inhibition of human CAMKK2 in presence of ATP at Km level
Aurora kinase B [21] = molecular target: T7, Aurora kinase B; experiment: Inhibition of human AURKB in presence of ATP at Km level
[22] = molecular target: T8, Calcium/calmodulin-dependent protein kinase kinase 1; experiment: Inhibition of human CAMKK1 in presence of ATP at Km level
[23] = molecular target: T9, Serine/threonine-protein kinase 38-like; experiment: Inhibition of human STK38L in presence of ATP at Km level
[24] = molecular target: T10, Serine/threonine-protein kinase 17A; experiment: Inhibition of human STK17A in presence of ATP at Km level
[25] = molecular target: T6, Calcium/calmodulin-dependent protein kinase kinase 2; experiment: Binding affinity to human CAMKK2 incubated for 2 hrs by nano-BRET assay based cellular target engagement assay
Aurora kinase B [26] = molecular target: T7, Aurora kinase B; experiment: Binding affinity to human AURKB incubated for 2 hrs by nano-BRET assay based cellular target engagement assay
[27] = molecular target: T9, Serine/threonine-protein kinase 38-like; experiment: Binding affinity to human STK38L incubated for 2 hrs by nano-BRET assay based cellular target engagement assay
[28] = molecular target: T10, Serine/threonine-protein kinase 17A; experiment: Binding affinity to human STK17A incubated for 2 hrs by nano-BRET assay based cellular target engagement assay
[29] = molecular target: T1, Serine/threonine-protein kinase 17B

Question: Which results are given for `O=C(O)CSc1ncnc2cc(-c3cc4ccccc4s3)sc12`?
Answer: pKd [1]: 8.25; pIC50 [2]: 7.47; remaining at 0.5 h, 100 µM [3]: 63%; solubility kinetic [4]: 5 µg/mL (≈ 13.9 µM); pKd [5]: < 5.00; pKd [6]: < 5.00; pKd [7]: 5.82; pKd (Wee1-like protein kinase [8]): < 5.00; pKd [9]: 8.25; pKd [10]: 7.68; pKd (Aurora kinase B [11]): 6.96; pKd [12]: 7.31; pKd [13]: < 5.00; pKd [14]: 6.36; pIC50 [15]: < 5.00; pIC50 [16]: < 5.00; pIC50 [17]: < 5.00; pIC50 (Wee1-like protein kinase [18]): < 5.00; pIC50 [19]: 7.47; pIC50 [20]: < 5.00; pIC50 (Aurora kinase B [21]): 5.05; pIC50 [22]: 5.28; pIC50 [23]: < 5.00; pIC50 [24]: 5.33; pIC50 [25]: 5.62; pIC50 (Aurora kinase B [26]): < 5.00; pIC50 [27]: < 5.00; pIC50 [28]: < 5.00; pIC50 [29]: 6.72

— ChEMBL document CHEMBL4715866, “A Chemical Probe for Dark Kinase STK17B Derives Its Potency and High Selectivity through a Unique P-Loop Conformation” (J Med Chem, 2020)
